From US4898943A, “Tricyclic triazolopyrimidine derivatives” (Daiichi Seiyaku Co., Ltd., priority 1987, dated 1990)

Legend:
PCA reaction = assay: PCA test (48-hour passive cutaneous anaphylaxis), oral administration; format: in vivo; details: Rattus norvegicus, 10 mg/kg orally, 30 minutes before antigen challenge, male Sprague-Dawley rats
Protocol: Each of Sprague-Dawley female rats weighing 170 to 250 g (CRJ-CD(SD), Charles River Japan Inc.) was intramuscularly administered with 5 mg/kg-body weight of egg albumin dissolved in saline, and then 1 ml of a suspension of Bordetella pertussis vaccine (2×10^10 organism) in saline was administered intraperitoneally to the rat. On day 10, 3,000 larvae animal of Nippostrongylus brasiliensis were subcutaneously administered to the rats. On day 24, blood was drawn from the rats to obtain an antiserum.
The antiserum was diluted with saline so as to provide a blue spot having a diameter of about 10 mm in the following control group.
Male sprague-Dawley rats weighing about 180 g (5 rats per group) were sensitized by injecting 0.05 ml of the diluted antiserum into the shaved dorsal skin. Fourty-eight hours later, 1 ml of saline containing 0.5% Evans blue and 5 mg of egg albumin was administered to each of the rats via a tail vein. After 30 minutes, the rats were sacrificed by decapitation. The dorsal skin was removed, and the amount of the dye in the blue spot area was measured in accordance with the method of Katayama et al., Microbiol. Immunol., Vol. 22, 89-101 (1978).
Ten milligrams of the test compound was suspended in 5 ml of a 0.5% CMC aqueous solution, and the suspension was orally administered to each of the rats in an amount of 10 mg/kg 30 minutes before the antigen challenge. On the other hand, a control group received only a 0.5% CMC solution.
The inhibitory activity on the PCA reaction in the treated group was calculated by the following equation: [formula] wherein V represents a mean value of the dye amount in the blue spot area in the control group; and W represents a mean value of the dye amount in the blue spot area in the treated group.

Acute toxicity test = details: mouse, in vivo, po; p.o. in mice

O=c1c2[nH]nnc2nc2sc(CCCC3CCCC3)nn12 [Example 3]
inhibition at 10 mg/kg (PCA reaction): 91% | LD50 (Acute toxicity test): > 4000 mg/kg

O=c1c2[nH]nnc2nc2sc(CCC3CCCC3)nn12 [Example 2]
inhibition at 10 mg/kg (PCA reaction): 62% | LD50 (Acute toxicity test): 2000 to 4000 mg/kg

O=c1c2[nH]nnc2nc2sc(CCC3CCCCC3)nn12 [Example 1, 6-(2-Cyclohexylethyl)-[1,3,4]thiadiazolo-[3,2-a][1,2,3]triazolo[4,5-d]pyrimidin-9-(1H)-one]
inhibition at 10 mg/kg (PCA reaction): 81% | LD50 (Acute toxicity test): > 4000 mg/kg

O=c1c2[nH]nnc2nc2sc(CCCC3CCCCC3)nn12 [Example 5]
LD50 (Acute toxicity test): > 4000 mg/kg

O=c1c2[nH]nnc2nc2sc(CCC3CCCCCC3)nn12 [Example 9]
inhibition at 10 mg/kg (PCA reaction): 88% | LD50 (Acute toxicity test): > 4000 mg/kg

O=c1c2[nH]nnc2nc2sc(CC3CCCCC3)nn12 [Example 4]
inhibition at 10 mg/kg (PCA reaction): 77%
